Data reported in ChEMBL document CHEMBL3885861, “Open TG-GATES”.

Organism: Rattus norvegicus
Test: Open TG-GATES - Regimen: Daily Repeat
Assay type: toxicity, organism-based, Sprague-Dawley
Parameters: regimen Daily Repeat, gender Male, age 6 weeks
Settings: in vivo, po, 100 mg/kg, route gavage, dose level Low; for APTT / Bas / Eos / Fbg / Hb / Ht / Lym / MCH / MCHC / MCV / Mono / Neu / PT / Plat / RBC / Ret / WBC: tissue Blood; for KIDNEY_L / KIDNEY_R / KIDNEY_TOTAL: tissue Kidney; for LIVER: tissue Liver; for A/G / ALP / ALT / AST / BUN / CRE / Ca / Cl / DBIL / GLC / IP / K / LDH / Na / PL / RALB / TBIL / TC / TG / TP / gamma-GTP: tissue Plasma

## Cc1nnc2n1-c1ccc(Cl)cc1C(c1ccccc1Cl)=NC2 [TRIAZOLAM]
72 h, time 3 day
  TERMINAL_BW: 218.3 g
  APTT: 21.4 s
  Bas: 0%
  Eos: 1.2%
  Fbg: 274.2 mg/dL
  Hb: 13.8 g/dL
  Ht: 41.1%
  Lym: 74.2%
  MCH: 21.5 pg
  MCHC: 33.7%
  MCV: 63.9 fL
  Mono: 3.8%
  Neu: 20%
  PT: 13.2 s
  Plat: 117.9 x10_4/uL
  RBC: 643 x10_4/ul
  Ret: 6.6%
  WBC: 108.6 x10_2/uL
  KIDNEY_L: 1 g
  KIDNEY_R: 1 g
  KIDNEY_TOTAL: 1.9 g
  LIVER: 10.3 g
  A/G: 0.9
  ALP: 1550.6 IU/L
  ALT: 53.8 IU/L
  AST: 79 IU/L
  BUN: 14.2 mg/dL
  CRE: 0.2 mg/dL
  Ca: 11.1 mg/dL
  Cl: 104.6 meq/L
  DBIL: 0.012 mg/dL
  GLC: 166.2 mg/dL
  IP: 8.1 mg/dL
  K: 4 meq/L
  LDH: 88.2 IU/L
  Na: 141 meq/L
  PL: 142.4 mg/dL
  RALB: 2.6 g/dL
  TBIL: 0.054 mg/dL
  TC: 75.4 mg/dL
  TG: 76 mg/dL
  TP: 5.5 g/dL
  gamma-GTP: 1 IU/L
[…], time 7 day
  TERMINAL_BW: 251.1 g
  APTT: 20.5 s
  Bas: 0%
  Eos: 0.8%
  Fbg: 251.8 mg/dL
  Hb: 13.9 g/dL
  Ht: 41.6%
  Lym: 74.8%
  MCH: 20.9 pg
  MCHC: 33.5%
  MCV: 62.4 fL
  Mono: 2.2%
  Neu: 21.4%
  PT: 13 s
  Plat: 116.7 x10_4/uL
  RBC: 667 x10_4/ul
  Ret: 6.1%
  WBC: 109.2 x10_2/uL
  KIDNEY_L: 1.1 g
  KIDNEY_R: 1 g
  KIDNEY_TOTAL: 2.1 g
  LIVER: 11.9 g
  A/G: 0.9
  ALP: 1700.8 IU/L
  ALT: 48.8 IU/L
  AST: 75.6 IU/L
  BUN: 16.6 mg/dL
  CRE: 0.2 mg/dL
  Ca: 10.9 mg/dL
  Cl: 105.2 meq/L
  DBIL: 0.012 mg/dL
  GLC: 192.4 mg/dL
  IP: 6.9 mg/dL
  K: 4.2 meq/L
  LDH: 77.4 IU/L
  Na: 141.4 meq/L
  PL: 157.4 mg/dL
  RALB: 2.6 g/dL
  TBIL: 0.036 mg/dL
  TC: 78.6 mg/dL
  TG: 104.8 mg/dL
  TP: 5.5 g/dL
  gamma-GTP: 1.4 IU/L
[…], time 14 day
  TERMINAL_BW: 311.7 g
  APTT: 17.9 s
  Bas: 0.8%
  Eos: 1%
  Fbg: 253.2 mg/dL
  Hb: 14.4 g/dL
  Ht: 43.7%
  Lym: 77.2%
  MCH: 20.2 pg
  MCHC: 32.9%
  MCV: 61.6 fL
  Mono: 2.4%
  Neu: 18.4%
  PT: 13.4 s
  Plat: 117.2 x10_4/uL
  RBC: 710.8 x10_4/ul
  Ret: 4.8%
  WBC: 98 x10_2/uL
  KIDNEY_L: 1.2 g
  KIDNEY_R: 1.2 g
  KIDNEY_TOTAL: 2.4 g
  LIVER: 13.6 g
  A/G: 0.8
  ALP: 1617 IU/L
  ALT: 40.2 IU/L
  AST: 72.2 IU/L
  BUN: 16.2 mg/dL
  CRE: 0.2 mg/dL
  Ca: 10.8 mg/dL
  Cl: 104.8 meq/L
  DBIL: 0.008 mg/dL
  GLC: 189.6 mg/dL
  IP: 7.5 mg/dL
  K: 3.8 meq/L
  LDH: 83.4 IU/L
  Na: 142.6 meq/L
  PL: 151.8 mg/dL
  RALB: 2.7 g/dL
  TBIL: 0.04 mg/dL
  TC: 75 mg/dL
  TG: 118.2 mg/dL
  TP: 5.8 g/dL
  gamma-GTP: 1 IU/L
[…], time 28 day
  TERMINAL_BW: 393.2 g
  APTT: 17.1 s
  Bas: 0.2%
  Eos: 1.2%
  Fbg: 277.4 mg/dL
  Hb: 15.2 g/dL
  Ht: 45.2%
  Lym: 78.4%
  MCH: 19 pg
  MCHC: 33.6%
  MCV: 56.6 fL
  Mono: 1.6%
  Neu: 17.6%
  PT: 13.2 s
  Plat: 110.7 x10_4/uL
  RBC: 798 x10_4/ul
  Ret: 2.4%
  WBC: 93.4 x10_2/uL
  KIDNEY_L: 1.4 g
  KIDNEY_R: 1.4 g
  KIDNEY_TOTAL: 2.8 g
  LIVER: 15.5 g
  A/G: 0.8
  ALP: 1207.4 IU/L
  ALT: 42 IU/L
  AST: 64.8 IU/L
  BUN: 15.2 mg/dL
  CRE: 0.2 mg/dL
  Ca: 10.7 mg/dL
  Cl: 105 meq/L
  DBIL: 0.01 mg/dL
  GLC: 178.8 mg/dL
  IP: 6.4 mg/dL
  K: 4.1 meq/L
  LDH: 67.2 IU/L
  Na: 143.6 meq/L
  PL: 142.6 mg/dL
  RALB: 2.7 g/dL
  TBIL: 0.054 mg/dL
  TC: 68.4 mg/dL
  TG: 125.4 mg/dL
  TP: 6.2 g/dL
  gamma-GTP: 0.8 IU/L
